Data on 9 molecules can be found in ChEMBL document CHEMBL5126532, “Synthetic approaches and structural diversity of triazolylbutanols derived from voriconazole in the antifungal drug development” (Eur J Med Chem, 2022).

Series [1] deals with Candida albicans. The experiment in a line: In vivo antifungal activity against Candida albicans ATCC48130 infected in Fisher rat administered IV. Format: functional.
Series [2] concerns Candida albicans. As to the kind of experiment: In vivo antifungal activity against Candida albicans ATCC48130 infected in Fisher rat administered po. Format: functional.
Series [3] relates to Aspergillus fumigatus. The experiment in a line: In vivo antifungal activity against Aspergillus fumigatus infected in Fisher rat administered po. Format: functional.
Series [4] relates to Aspergillus fumigatus. The experiment in a line: In vivo antifungal activity against Aspergillus fumigatus infected in Fisher rat administered IV. Format: functional.
Series [5] in a line: Plasma protein binding in human. Format: ADME, cell-free. Particulars: route po, read-out: PPB (converted).
Series [6] is described as follows: Prodrug conversion in rat plasma assessed as half life. Format: ADME, cell-free.
For series [7], the system named is Cryptococcus neoformans. The experiment in a line: Antifungal activity against Cryptococcus neoformans TIMM1855 assessed as inhibition of fungal growth incubated for 68 hrs. Format: functional.
In series [8] the test system is Candida albicans. The experiment in a line: Antifungal activity against Candida albicans TIMM1756 assessed as inhibition of fungal growth incubated for 20 hrs. It counts as functional.
Series [9] deals with Cryptococcus neoformans. As to the kind of experiment: Antifungal activity against Cryptococcus neoformans TIMM1740 by agar-dilution assay. It counts as functional.
In series [10] the test system is Aspergillus fumigatus. As to the kind of experiment: In vivo antifungal activity against Aspergillus fumigatus infected in CDF1 mouse treated po 4 hrs after injection twice daily for 2 days measured on day 10. Particulars: 48 h, time 2 day. Format: functional.
Series [11] relates to Aspergillus fumigatus. The experiment in a line: Antifungal activity against Aspergillus fumigatus 437 by agar-dilution assay. It counts as functional.
The subject of series [12] is Candida albicans. The experiment in a line: In vivo antifungal activity against Candida albicans infected in CDF1 mouse treated po 4 hrs after injection twice daily for 2 days measured on day 10. It counts as functional. The note with it: 48 h, time 2 day.
Series [13] has as its system Aspergillus fumigatus. As to the kind of experiment: Antifungal activity against Aspergillus fumigatus IFO6344 by agar-dilution assay. Format: functional.
Series [14] deals with Aspergillus fumigatus. As to the kind of experiment: Antifungal activity against Aspergillus fumigatus TIMM1728 assessed as inhibition of fungal growth incubated for 20 hrs. It counts as functional.
For series [15], the system named is Aspergillus fumigatus. The experiment in a line: Antifungal activity against Aspergillus fumigatus TIMM1728 by agar-dilution assay. Format: functional.
Series [16] deals with Aspergillus fumigatus. The experiment in a line: Antifungal activity against Aspergillus fumigatus IFO6344 assessed as inhibition of fungal growth incubated for 20 hrs. It counts as functional.
Series [17] concerns Candida albicans. As to the kind of experiment: Antifungal activity against Candida albicans TIMM1850 assessed as inhibition of fungal growth incubated for 20 hrs. It counts as functional.
For series [18], the system named is Candida albicans. As to the kind of experiment: Antifungal activity against Candida albicans TIMM1756 by agar-dilution assay. It counts as functional.
Series [19] relates to Cryptococcus neoformans. As to the kind of experiment: Antifungal activity against Cryptococcus neoformans TIMM1740 assessed as inhibition of fungal growth incubated for 68 hrs. Format: functional.
Series [20] deals with Candida albicans. As to the kind of experiment: Antifungal activity against Candida albicans TIMM1850 by agar-dilution assay. Format: functional.
For series [21], the system named is Cryptococcus neoformans. The experiment in a line: Antifungal activity against Cryptococcus neoformans TIMM1855 by agar-dilution assay. Particulars: TIMM 1855. Format: functional.
Series [22] deals with Nannizzia gypsea. The experiment in a line: Antifungal activity against Microsporum gypseum. Format: functional.
In a further series the target is Cytochrome P450 3A4 (Homo sapiens, UniProt P08684). The experiment in a line: Inhibition of CYP3A4 in human hepatocyte microsomes using testosterone as substrate by LC-MS/MS analysis. It counts as ADME, Microsome.
The nature of series [23]: Water solubility of the compound at pH 7.4. Format: physicochemical. Particulars: buffer.
A short description of series [24]: Metabolic stability in Sprague-Dawley rat plasma assessed as half life by measuring TAK-456 metabolite formation preincubated for 5 mins followed by compound addition measured at 5 to 120 mins by HPLC analysis. Format: ADME, cell-free. Particulars: time 5-120 min.
Series [25] deals with Candida albicans. As to the kind of experiment: In vivo antifungal activity against Candida albicans infected in CDF1 mouse treated po or iv immediately after infection measured on day 7. Particulars: 168 h, time 7 day. Format: functional.
Series [26] concerns Candida albicans. As to the kind of experiment: Antifungal activity against Candida albicans assessed as inhibition of fungal growth incubated for 20 hrs. Format: functional.
A short description of series [27]: Metabolic stability in ICR mouse plasma assessed as half life by measuring TAK-456 metabolite formation preincubated for 5 mins followed by compound addition measured at 5 to 120 mins by HPLC analysis. It counts as ADME, cell-free. The note with it: time 5-120 min.
The nature of series [28]: Metabolic stability in human plasma assessed as half life by measuring TAK-456 metabolite formation preinubated for 5 mins followed by compound addition measured at 5 to 120 mins by HPLC analysis. Format: ADME, cell-free. Particulars: time 5-120 min.
Series [29] has as its system Candida albicans. As to the kind of experiment: In vivo antifungal activity against Candida albicans infected in CDF1 mouse treated po or iv 2 hrs after infection twice daily for 2 days measured on day 10. Format: functional. The note with it: 240 h, time 10 day.
Series [30] relates to Aspergillus fumigatus. The experiment in a line: Antifungal activity against Aspergillus fumigatus assessed as inhibition of fungal growth incubated for 20 hrs. It counts as functional.
A short description of series [31]: Oral bioavailability in monkey relative to control. It counts as ADME, organism-based, Macaca mulatta. Particulars: rhesus monkey, in vivo.
Series [32] relates to Aspergillus fumigatus. As to the kind of experiment: Antifungal activity against Aspergillus fumigatus. Format: functional.
The test system of series [33] is Nannizzia gypsea. The experiment in a line: Potency index, ratio of MIC80 for FCZ to ratio of MIC80 for test compound against antifungal activity in Microsporum gypseum. Format: functional.
Series [34] concerns Candida albicans. The experiment in a line: Antifungal activity against FCZ-resistant Candida albicans 100. Format: functional.
The next series deals with Candida parapsilosis. The experiment in a line: Antifungal activity against Candida parapsilosis. It counts as functional. Particulars: Lodderomyces parapsilosis.
Series [35] concerns Candida albicans. As to the kind of experiment: Antifungal activity against FCZ-resistant Candida albicans 103. It counts as functional.
Series [36] has as its system Candida albicans. The experiment in a line: Antifungal activity against Candida albicans. It counts as functional.

Structures are written as SMILES. pIC50: −log10 of the molar value. ≈ marks a conversion by molar mass, not a printed value.

Chain of Cytochrome P450 3A4 (P08684 whole entry): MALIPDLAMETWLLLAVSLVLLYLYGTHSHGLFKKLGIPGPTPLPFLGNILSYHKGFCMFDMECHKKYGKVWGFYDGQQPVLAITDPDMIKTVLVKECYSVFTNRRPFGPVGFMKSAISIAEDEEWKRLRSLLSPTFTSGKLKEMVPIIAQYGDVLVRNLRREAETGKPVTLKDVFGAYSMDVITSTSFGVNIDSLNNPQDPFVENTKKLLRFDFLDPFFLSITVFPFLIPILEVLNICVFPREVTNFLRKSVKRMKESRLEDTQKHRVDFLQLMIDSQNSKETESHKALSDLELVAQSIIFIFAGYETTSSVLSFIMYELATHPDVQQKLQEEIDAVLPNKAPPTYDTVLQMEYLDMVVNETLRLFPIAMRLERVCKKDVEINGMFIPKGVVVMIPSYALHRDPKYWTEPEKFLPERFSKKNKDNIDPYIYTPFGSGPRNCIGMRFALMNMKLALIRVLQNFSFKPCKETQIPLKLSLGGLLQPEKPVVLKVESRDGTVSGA

For the molecule `CNCC(=O)Oc1c(C)cc(C[n+]2cnn(C[C@](O)(c3ccc(F)cc3F)[C@@H](C)c3nc(-c4ccc(C#N)cc4)cs3)c2)cc1C`, the ED50 with Candida albicans [1] turned out to be 4.6 µmol/kg; with Candida albicans [2], 4.7 µmol/kg; with Aspergillus fumigatus [3] it was 19 µmol/kg; with Aspergillus fumigatus [4], 17 µmol/kg.
As to `C=C1CCN([C@H](C)[C@](O)(Cn2cncn2)c2ccc(F)cc2F)CC1` [EFINACONAZOLE], the fraction unbound in [5] was 0.04.
For `CC(=O)OCc1ccccc1N(C)C(=O)OC[n+]1cnn(C[C@](O)(c2ccc(F)cc2F)[C@@H](C)c2nc(-c3ccc(C#N)cc3)cs2)c1.[Cl-]`, in series [6], the t1/2 was 13 min.
Take `C[C@@H](N1CCN(c2ccc(-n3ncnn3)cc2)C1=O)[C@](O)(Cn1cncn1)c1ccc(F)cc1F`: the MIC was 0.016 µg/mL (≈ 0.0332 µM) in the series on Cryptococcus neoformans [7]; no more than 0.001 µg/mL in the series on Candida albicans [8]; 0.03 µg/mL (≈ 0.0623 µM) against Cryptococcus neoformans [9]; 0.03 µg/mL (≈ 0.0623 µM) against Aspergillus fumigatus [11]; 0.03 µg/mL (≈ 0.0623 µM) in the series with Aspergillus fumigatus [13]; 0.25 µg/mL (≈ 0.519 µM) in the series with Aspergillus fumigatus [14]. For the same molecule, the MIC with Aspergillus fumigatus [15] was 0.03 µg/mL (≈ 0.0623 µM); with Aspergillus fumigatus [16] it was 0.25 µg/mL (≈ 0.519 µM); with Candida albicans [17], no more than 0.001 µg/mL; in the series on Candida albicans [18] it was 0.002 µg/mL (≈ 0.00415 µM); in the series with Cryptococcus neoformans [19], 0.016 µg/mL (≈ 0.0332 µM); against Candida albicans [20], 0.002 µg/mL (≈ 0.00415 µM). Besides, the lowest concentration to inhibit growth in the series on Cryptococcus neoformans [21] (MIC) was 0.03 µg/mL (≈ 0.0623 µM). Also, the ED50 worked out at 4 mg/kg in the series with Aspergillus fumigatus [10] and 0.18 mg/kg with Candida albicans [12].
Consider `C[C@@H](c1nc(-c2ccc(C#N)cc2)cs1)[C@](O)(Cn1cncn1)c1ccc(F)cc1F` [RAVUCONAZOLE], for which, in the series with Nannizzia gypsea [22], the MIC80 amounted to 1 µg/mL (≈ 2.29 µM). Besides, the pIC50 against Cytochrome P450 3A4 was 6.00. Moreover, the solubility in series [23] worked out at 600 µg/mL (≈ 1370 µM).
As to `CC(=O)OC[n+]1cnn(C[C@](O)(c2ccc(F)cc2F)[C@@H](C)N2CCN(c3ccc(-n4cnnn4)cc3)C2=O)c1.[Cl-]`, the t1/2 in series [24], in series [27] and in [28] was 5 min throughout. Also, the ED50 with Candida albicans [25] turned out to be 0.62 mg/kg; in the series on Candida albicans [29], 4.49 mg/kg. In addition, the MIC in the series with Candida albicans [26] is 0.016 µg/mL.
Consider `C[C@@H](N1Cc2cc(Br)sc2C1=O)[C@](O)(Cn1cncn1)c1ccc(F)cc1F`, for which, in the series with Aspergillus fumigatus [30], the MIC was determined as 0.25 µg/mL (≈ 0.533 µM).
Regarding `C[C@@H](c1nc(-c2ccc(C#N)cc2)cs1)[C@](O)(Cn1cncn1)c1cc(F)ccc1F` [ISAVUCONAZOLE], the bioavailability in series [31] came to 87%.
On to `C[C@@H](OCc1cc(-c2ccc(F)cc2)no1)[C@](O)(Cn1cncn1)c1ccc(F)cc1F`, for which the MIC80 came out at 4 µg/mL (≈ 9 µM) in the series on Aspergillus fumigatus [32]; 0.5 µg/mL (≈ 1.13 µM) against Nannizzia gypsea [22]; 8 µg/mL (≈ 18 µM) against Candida albicans [34]; 0.0313 µg/mL (≈ 0.0704 µM) against Candida parapsilosis; 8 µg/mL (≈ 18 µM) against Candida albicans [35]; 0.0313 µg/mL (≈ 0.0704 µM) in the series on Candida albicans [36]. Also, in the series on Nannizzia gypsea [33], the Ratio is 64.

In general, ED50 refers to the dose at which the effect has come halfway, by size or by number of responders. For orientation: MIC means the lowest concentration found to suppress growth. The MIC80 is an inhibitory concentration at the 80% level, which refers to growth in some studies and to a panel of isolates in others. What is called pIC50 is the IC50 on a negative log10 scale, so that one unit is a factor of ten. What is called solubility is the concentration that dissolves in the medium under given conditions. In general, bioavailability refers to the share of a dose that reaches the circulation, judged against a reference dose that is usually intravenous.
